Reference: PMC7371993, “Targeting of the C-Type Lectin Receptor Langerin Using Bifunctional Mannosylated Antigens” (Frontiers in Cell and Developmental Biology, 2020)

Each molecule was assayed against T1, Langerin S-ECD (Homo sapiens, UniProt Q9UJ71) (assay: SPR direct interaction assay on oriented Langerin S-ECD surface). Conditions: Langerin S-ECD captured via StreptagII on CM3 chip, flow 30 μL/min, same running buffer pH 8, 1:1 fit, apparent Kd, read-out: Kdapp.
T1 construct: The ECD of Langerin (residues 68–328) was overexpressed and purified as previously described; made in house
Format: binding
Method: To determine the apparent Kd value, direct interaction experiments were executed on a T200 Biacore with a CM3 series S sensor chip. The Langerin ECD in this assay was functionalized with a […] on the N-terminus (Langerin S-ECD), for oriented capture on the sensor chip surface. The flow cells were functionalized with streptactin protein after EDC/NHS activation. Control flow cell 1 was functionalized with BSA, whereas another flow cell was functionalized with 100 μg/mL Langerin S-ECD via tag-specific capture and simultaneous amine coupling as previously described ([Porkolab et al., 2020]). An approximate density of about 2.609 RU was achieved on the chip surface. The compounds were injected in increasing concentrations with a flow rate of 30 μL/min in the previously mentioned running buffer. The data were analyzed in Biacore BIAevaluation software for direct interaction 1:1 calculation to determine the apparent Kd value.

T1 sequence (Q9UJ71 68-328): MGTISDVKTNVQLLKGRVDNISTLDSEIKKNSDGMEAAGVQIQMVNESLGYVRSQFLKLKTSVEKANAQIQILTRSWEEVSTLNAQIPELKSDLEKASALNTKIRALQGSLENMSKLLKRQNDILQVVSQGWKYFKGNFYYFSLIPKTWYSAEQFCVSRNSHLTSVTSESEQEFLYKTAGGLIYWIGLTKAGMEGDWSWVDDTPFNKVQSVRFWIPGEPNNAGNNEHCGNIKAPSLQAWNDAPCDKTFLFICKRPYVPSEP

| Structure (SMILES) | Kd [µM] |
| --- | --- |
| CC(=O)N[C@@H](CCCCn1cc(CO[C@H]2O[C@H](CO[C@H]3O[C@H](CO)[C@@H](O)[C@H](O)[C@@H]3O)[C@@H](O)[C@H](O)[C@@H]2O)nn1)C(=O)NCC(=O)N[C@@H](CCCCn1cc(CO[C@H]2O[C@H](CO[C@H]3O[C@H](CO)[C@@H](O)[C@H](O)[C@@H]3O)[C@@H](O)[C@H](O)[C@@H]2O)nn1)C(=O)NCC(=O)N[C@@H](CCCCN)C(N)=O [Ligand D2] | 16 |
| CC(=O)N[C@@H](CCCCn1cc(CO[C@H]2O[C@H](CO[C@H]3O[C@H](CO)[C@@H](O)[C@H](O)[C@@H]3O)[C@@H](O)[C@H](O[C@H]3O[C@H](CO)[C@@H](O)[C@H](O)[C@@H]3O)[C@@H]2O)nn1)C(=O)NCC(=O)N[C@@H](CCCCn1cc(CO[C@H]2O[C@H](CO[C@H]3O[C@H](CO)[C@@H](O)[C@H](O)[C@@H]3O)[C@@H](O)[C@H](O[C@H]3O[C@H](CO)[C@@H](O)[C@H](O)[C@@H]3O)[C@@H]2O)nn1)C(=O)NCC(=O)N[C@@H](CCCCN)C(N)=O [Ligand E2] | 278 |

What follows are molecules tested against T2, Langerin ECD (Homo sapiens, UniProt Q9UJ71) (assay: SPR competition (inhibition) assay with trimeric Langerin ECD). Conditions: Biacore T200, CM3 chip with BSA-Manα1-3[Manα1-6]Man, Langerin ECD 20 μM, 25 mM Tris-HCl pH 8, 150 mM NaCl, 4 mM CaCl2, 0.05% P20, four parameter fit.
T2 construct: The ECD of Langerin (residues 68–328) was overexpressed and purified as previously described; made in house
Format: binding
Method: The ECD of Langerin (residues 68–328) was overexpressed and purified as previously described ([Thépaut et al., 2009]). The SPR competition experiments were performed on a Biacore T200 using a CM3 series S sensor chip. Control flow cell 1 was functionalized with bovine serum albumin (BSA), whereas flow cell 2 and 3 were treated with 60 μg/mL BSA-Man α1-3[Manα1-6]Man (Dextra) in 10 mM NaOAc pH4 (final densities 2.062 and 2.183 RU, respectively). All flow cells were blocked with ethanolamine. […] Langerin ECD (20 μM) was injected at 5 μL/min, with or without inhibitor at increasing concentrations. The data were analyzed in Biacore BIAevaluation software using four parameter equation, and the IC50 was determined.

T2 sequence (Q9UJ71 68-328): as above

| Structure (SMILES) | IC50 [µM] |
| --- | --- |
| CC(=O)N[C@@H](CCCCn1cc(CO[C@H]2O[C@H](CO)[C@@H](O)[C@H](O)[C@@H]2O)nn1)C(=O)NCC(=O)N[C@@H](CCCCn1cc(CO[C@H]2O[C@H](CO)[C@@H](O)[C@H](O)[C@@H]2O)nn1)C(=O)NCC(=O)N[C@@H](CCCCN)C(N)=O [Ligand A2] | 2420 ± 30 |
| CC(=O)N[C@@H](CCCCn1cc(CO[C@H]2O[C@H](CO)[C@@H](O)[C@H](O[C@H]3O[C@H](CO)[C@@H](O)[C@H](O)[C@@H]3O)[C@@H]2O)nn1)C(=O)NCC(=O)N[C@@H](CCCCn1cc(CO[C@H]2O[C@H](CO)[C@@H](O)[C@H](O[C@H]3O[C@H](CO)[C@@H](O)[C@H](O)[C@@H]3O)[C@@H]2O)nn1)C(=O)NCC(=O)N[C@@H](CCCCN)C(N)=O [Ligand C2] | 1420 |
| CC(=O)N[C@@H](CCCCn1cc(CO[C@H]2O[C@H](CO)[C@@H](O)[C@H](O)[C@@H]2O[C@H]2O[C@H](CO)[C@@H](O)[C@H](O)[C@@H]2O)nn1)C(=O)NCC(=O)N[C@@H](CCCCn1cc(CO[C@H]2O[C@H](CO)[C@@H](O)[C@H](O)[C@@H]2O[C@H]2O[C@H](CO)[C@@H](O)[C@H](O)[C@@H]2O)nn1)C(=O)NCC(=O)N[C@@H](CCCCN)C(N)=O [Ligand B2] | 181 ± 4 |
| CC(=O)N[C@@H](CCCCn1cc(CO[C@H]2O[C@H](CO)[C@@H](O)[C@H](O)[C@@H]2O[C@H]2O[C@H](CO)[C@@H](O)[C@H](O)[C@@H]2O)nn1)C(=O)NCC(=O)N[C@@H](CCCCN)C(N)=O [Ligand B1] | 4140 |
